Like-named read-outs stand apart in the source and are kept apart here.
Tests used:
[1] = cited from earlier work
[2] = Rabbit aerosol inhalation model, serum sCT concentration after intratracheal aerosol administration; assay type: in vivo; conditions: single intratracheal aerosol administration
Experimental: The in vivo dissolution properties of the composition were determined in a rabbit aerosol inhalation model. In this test, the serum sCT concentration was measured for increasing time following intratracheal aerosol administration for sustained release microparticles comprising 20% w/w encapsulated sCT and compared to the concentration of a control sample comprising neat 20% w/w sCT powder. […] In contrast, the absorption of the encapsulated sCT of the microparticles reaches its maximum blood levels at 4 hours post administration and are sustained to at least 24 hours. […] Accordingly, the encapsulated sCT microparticles prepared according to the above method provide improved sustain release results over the unencapsulated sCT, by increasing the duration over which the drug is released to provide a more controlled dose of the sCT drug.

| tmax ([2]; serum, inhaled or intranasal, read-out: time to maximum concentration in the blood (converted)) [min] | time after which blood levels return to baseline [2] [h] | Structure (SMILES) | tmax ([1]; following inhalation delivery, Pulmicort Turbuhaler) [min] | absolute bioavailability ([1]; inhaled) [%] | bioavailability ([1]; nasal) [%] | bioavailability ([1]; oral) [%] |
| --- | --- | --- | --- | --- | --- | --- |
| – | – | CCCC1O[C@@H]2C[C@H]3[C@@H]4CCC5=CC(=O)C=C[C@]5(C)[C@H]4[C@@H](O)C[C@]3(C)[C@]2(C(=O)CO)O1 (stereo partly drawn) [budesonide] | ~30 | 39 | 21±6 | 10.7±4.3 |
| 15 | 3 | CC(C)C[C@H](NC(=O)[C@H](CCCCN)NC(=O)CNC(=O)[C@H](CC(C)C)NC(=O)[C@@H](NC(=O)[C@@H]1CSSC[C@H](N)C(=O)N[C@@H](CO)C(=O)N[C@@H](CC(N)=O)C(=O)N[C@@H](CC(C)C)C(=O)N[C@@H](CO)C(=O)N[C@@H]([C@@H](C)O)C(=O)N1)C(C)C)C(=O)N[C@@H](CO)C(=O)N[C@@H](CCC(N)=O)C(=O)N[C@@H](CCC(=O)O)C(=O)N[C@@H](CC(C)C)C(=O)N[C@@H](Cc1c[nH]cn1)C(=O)N[C@@H](CCCCN)C(=O)N[C@@H](CC(C)C)C(=O)N[C@@H](CCC(N)=O)C(=O)N[C@H](C(=O)N[C@@H](Cc1ccc(O)cc1)C(=O)N1CCC[C@H]1C(=O)N[C@@H](CCCNC(=N)N)C(=O)N[C@H](C(=O)N[C@@H](CC(N)=O)C(=O)N[C@H](C(=O)NCC(=O)N[C@@H](CO)C(=O)NCC(=O)N[C@H](C(=O)N1CCC[C@H]1C(N)=O)[C@@H](C)O)[C@@H](C)O)[C@@H](C)O)[C@@H](C)O [neat salmon calcitonin] | – | – | – | – |
